In patent US20120134940A1, “NANODISPERSIONS” (priority 2006, published 2012):

Conditions: payload material itself
Excerpt: By selection of a carrier which is also soluble in both DMSO and one of water, ethanol and PPG (for example PVP/HPC) it is possible to obtain a nano-disperse form of either payload material in the carrier, which can be “dissolved” in water, ethanol or PPG.

solubility in DMSO: soluble
solubility in water, ethanol and poly-propylene glycol: insoluble
Structure (SMILES): COc1cc(C=O)cc(-c2cc(C=O)cc(OC)c2O)c1O [divanillin]
